Patent publication US8394831B2, “Carbonylamino-derivatives as novel inhibitors of histone deacetylase” (Janssen Pharmaceutica, N.V., priority 2002, dated 2013)

What was measured:
[1] = target: histone deacetylase (HeLa nuclear extracts); experiment: In vitro assay for inhibition of histone deacetylase; format: biochemical; design: key: pIC50 = -log IC50; conditions: [3H]acetylated histone H4 peptide substrate
Experimental: The in vitro assay for inhibition of histone deacetylase (see example C.1) measures the inhibition of HDAC enzymatic activity obtained with the compounds of formula (I).
HeLa nuclear extracts (supplier: Biomol) were incubated at 60 μg/ml with 2×10^−8 M of radiolabeled peptide substrate. As a substrate for measuring HDAC activity a synthetic peptide, i.e. the amino acids 14-21 of histone H4, was used. The substrate is biotinylated at the NH2-terminal part with a 6-aminohexanoic acid spacer, and is protected at the COOH-terminal part by an amide group and specifically [^3H]acetylated at lysine 16. The substrate, biotin-(6-aminohexanoic)Gly-Ala-([^3H]-acetyl-Lys-Arg-His-Arg-Lys-Val-NH2), was added in a buffer containing 25 mM Hepes, 1 M sucrose, 0.1 mg/ml BSA and 0.01% Triton X-100 at pH 7.4. After 30 min the deacetylation reaction was terminated by the addition of HCl and acetic acid. (final concentration 0.035 mM and 3.8 mM respectively). After stopping the reaction, the free ^3H-acetate was extracted with ethylacetate. After mixing and centrifugation, the radioactivity in an aliquot of the upper (organic) phase was counted in a β-counter. For each experiment, controls (containing HeLa nuclear extract and DMSO without compound), a blank incubation (containing DMSO but no HeLa nuclear extract or compound) and samples (containing compound dissolved in DMSO and HeLa nuclear extract) were run in parallel. In first instance, compounds were tested at a concentration of 10^−5M. […] In each test the blank value was subtracted from both the control and the sample values. The control sample represented 100% of substrate deacetylation. For each sample the radioactivity was expressed as a percentage of the mean value of the controls. […] Herein the effects of test compounds are expressed as pIC50 (the negative log value of the IC50-value).

[2] = test system: A2780 ovarian carcinoma cells; experiment: Antiproliferative activity on A2780 cells (MTT); format: cell-based, human; conditions: four days of incubation; for IC50: Homo sapiens, 96 h, read-out: Cellular activity pIC50 (converted)
Experimental: Cellular activity of the compounds of formula (I) was determined on A2780 tumour cells using a colorimetric assay for cell toxicity or survival (Mosmann Tim, Journal of Immunological Methods 65: 55-63, 1983)(see example C.2).
All compounds tested were dissolved in DMSO and further dilutions were made in culture medium. Final DMSO concentrations never exceeded 0.1% (v/v) in cell proliferation assays. Controls contained A2780 cells and DMSO without compound and blanks contained DMSO but no cells. MTT was dissolved at 5 mg/ml in PBS. A glycine buffer comprised of 0.1 M glycine and 0.1 M NaCl buffered to pH 10.5 with NaOH (1 N) was prepared (all reagents were from Merck).
The human A2780 ovarian carcinoma cells (a kind gift from Dr. T. C. Hamilton [Fox Chase Cancer Centre, Pennsylvania, USA]) were cultured in RPMI 1640 medium supplemented with 2 mM L-glutamine, 50 μg/ml gentamicin and 10% fetal calf serum. Cells were routinely kept as monolayer cultures at 37° C. in a humidified 5% CO2 atmosphere. Cells were passaged once a week using a trypsin/EDTA solution at a split ratio of 1:40. All media and supplements were obtained from Life Technologies. Cells were free of mycoplasma contamination as determined using the Gen-Probe Mycoplasma Tissue Culture kit (supplier: BioMérieux).
Cells were seeded in NUNC™ 96-well culture plates (Supplier: Life Technologies) and allowed to adhere to the plastic overnight. Densities used for plating were 1500 cells per well in a total volume of 200 μl medium. After cell adhesion to the plates, medium was changed and drugs and/or solvents were added to a final volume of 200 Following four days of incubation, medium was replaced by 200 μl fresh medium and cell density and viability was assessed using an MTT-based assay. To each well, 25 μl MTT solution was added and the cells were further incubated for 2 hours at 37° C. The medium was then carefully aspirated and the blue MTT-formazan product was solubilized by addition of 25 μl glycine buffer followed by 100 μl of DMSO. […] Within an experiment, the results for each experimental condition are the mean of 3 replicate wells. For initial screening purposes, compounds were tested at a single fixed concentration of 10^−6 M. For active compounds, the experiments were repeated to establish full concentration-response curves. For each experiment, controls (containing no drug) and a blank incubation (containing no cells or drugs) were run in parallel. The blank value was subtracted from all control and sample values. For each sample, the mean value for cell growth (in absorbance units) was expressed as a percentage of the mean value for cell growth of the control. […] Herein the effects of test compounds are expressed as pIC50 (the negative log value of the IC50-value).

[3] = Kinetic solubility in aqueous media; format: physicochemical; conditions: aqueous buffer, kinetic from dmso stock; phosphate citrate buffer pH 7.4, turbidity by nephelometer; read-out: Solubility Score
Experimental: Kinetic solubility in aqueous media measures the ability of a compound to stay in aqueous solution upon dilution (see example C.3).
DMSO-stock solutions are diluted with a single aqueous buffer solvent in 3 consecutive steps. For every dilution turbidity is measured with a nephelometer.
In the first dilution step, 10 μl of a concentrated stock-solution of the active compound, solubilized in DMSO (5 mM), was added to 100 μl phosphate citrate buffer pH 7.4 and mixed. In the second dilution step, an aliquot (20 μl) of the first dilution step was further dispensed in 100 μl phosphate citrate buffer pH 7.4 and mixed. Finally, in the third dilution step, a sample (20 μl) of the second dilution step was further diluted in 100 μl phosphate citrate buffer pH 7.4 and mixed. All dilutions were performed in 96-well plates Immediately after the last dilution step the turbidity of the three consecutive dilution steps were measured with a nephelometer. Dilution was done in triplicate for each compound to exclude occasional errors. Based on the turbidity measurements a ranking is performed into 3 classes. Compounds with high solubility obtained a score of 3 and for this compounds the first dilution is clear. Compounds with medium solubility obtained a score of 2. For these compounds the first dilution is unclear and the second dilution is clear.

| Structure (SMILES) | Enzyme activity pIC50 [1] | IC50 [2] | solubility [3] | melting point | Cellular activity pIC50 [2] |
| --- | --- | --- | --- | --- | --- |
| O=C(NO)c1ccc(N2CCC(NC(=O)c3ccc4ccccc4c3)CC2)cc1 [Co. No. 1] | 5.649 | 4510 nM |  |  |  |
| O=C(NO)c1cnc(N2CCC(CNC(=O)c3ccc4ccccc4c3)CC2)nc1 [Co. No. 3] | 8.103 | 132 nM | < 75.8 µM | 226 °C |  |
| O=C(NO)c1ccc(N2CCC(NC(=O)c3cc4cc(F)ccc4[nH]3)CC2)nc1 [compound 8] | 6.94 |  |  |  | 5.497 |
| COc1ccc2[nH]c(C(=O)NC3CCN(c4ccc(C(=O)NO)cn4)CC3)cc2c1 [compound 10] | 7.19 |  |  |  | 5.747 |
| O=C(NO)c1cnc(N2CC[C@H](O)[C@H](CNS(=O)(=O)c3ccc4ccccc4c3)C2)nc1 [compound 11] | 6.215 |  |  |  | <5 |
| O=C(CC(c1ccccc1)c1ccccc1)NC1CCN(c2ccc(C(=O)NO)cn2)CC1 [compound 12] | 6.909 |  |  |  | 5.562 |

The remaining lines, values ahead:

| Enzyme activity pIC50 [1] | IC50 [2] | solubility [3] | melting point | Cellular activity pIC50 [2] | Structure (SMILES) |
| --- | --- | --- | --- | --- | --- |
| 6.794 | 1790 nM | > 454 µM |  |  | COc1cc(C(=O)NC2CCN(c3ccc(C(=O)NO)cn3)CC2)nc2ccccc12 [Co. No. 2] |
| 6.861 |  |  |  | 5.664 | O=C(NO)c1ccc(N2CCC(NC(=O)c3ccc4ccccc4c3)CC2)nc1 [compound 5] |
| 6.951 |  |  |  | 5.86 | O=C(NO)c1ccc(N2CCC(NC(=O)c3cc4ccccc4cn3)CC2)nc1 [compound 6] |
| 6.416 |  |  |  | 5.331 | Cn1c(C(=O)NC2CCN(c3ccc(C(=O)NO)cn3)CC2)cc2ccccc21 [compound 7] |
| 6.774 |  |  |  | 5.579 | Cn1cc(C(=O)NC2CCN(c3ccc(C(=O)NO)cn3)CC2)c2ccccc21 [compound 9] |
| 7.061 |  |  |  | <5 | O=C(Cc1c[nH]c2ccccc12)NC1CCN(c2ccc(C(=O)NO)cn2)CC1 [compound 13] |
| 6.611 |  |  |  | 5.175 | O=C(NO)c1ccc(N2CCC(NC(=O)C3CCc4ccccc43)CC2)nc1 (centres unmarked) [compound 14] |
